The values that follow come from patent US20180104198A1, “Pharmaceutical Composition, Methods for Treating and Uses Thereof” (Boehringer Ingelheim International GmbH, priority 2016, published 2018).

The target in one test is T1, human diamine oxidase (Homo sapiens, UniProt P19801).
T1 sequence (P19801 20-751): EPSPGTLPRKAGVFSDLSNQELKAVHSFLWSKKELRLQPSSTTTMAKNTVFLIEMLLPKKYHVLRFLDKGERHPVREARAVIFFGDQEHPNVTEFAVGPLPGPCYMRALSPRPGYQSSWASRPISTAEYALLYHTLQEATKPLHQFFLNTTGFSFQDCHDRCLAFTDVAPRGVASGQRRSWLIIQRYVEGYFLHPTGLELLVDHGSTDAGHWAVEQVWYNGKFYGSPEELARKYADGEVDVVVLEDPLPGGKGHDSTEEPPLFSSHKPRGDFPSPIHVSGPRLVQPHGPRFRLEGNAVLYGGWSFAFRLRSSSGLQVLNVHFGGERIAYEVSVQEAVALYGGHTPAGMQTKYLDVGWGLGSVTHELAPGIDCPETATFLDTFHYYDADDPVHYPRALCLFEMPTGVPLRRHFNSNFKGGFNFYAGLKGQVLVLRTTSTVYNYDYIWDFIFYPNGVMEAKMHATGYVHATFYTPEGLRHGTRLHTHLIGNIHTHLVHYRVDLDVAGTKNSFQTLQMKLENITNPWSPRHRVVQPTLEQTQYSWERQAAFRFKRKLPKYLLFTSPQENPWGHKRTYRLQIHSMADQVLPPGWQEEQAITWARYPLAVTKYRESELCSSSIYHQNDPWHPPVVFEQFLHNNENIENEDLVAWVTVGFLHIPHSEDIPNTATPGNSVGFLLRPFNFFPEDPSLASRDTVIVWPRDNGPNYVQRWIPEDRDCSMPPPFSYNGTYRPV
Briefly: inhibition of human diamine oxidase. The note with it: qualitative statement.

Another test deals with HbA1c. The note with it: metformin on its own, in the diabetic; cited from earlier work.
The test system of a further test is SGLT2 versus SGLT1. The note with it: Grempler et al. 2012; cited from earlier work.
The subject of test [1] is patients with type 2 diabetes mellitus. The note with it: patients with type 2 diabetes mellitus at high risk for cardiovascular events; Zinman et al. 2015; cited from earlier work.

Molecules are shown by their SMILES.

For `CC(C)(C)NC(=O)c1ccc(OC/C(=C/F)CN)cc1` [Compound 23, (E)-4-(2-(Aminomethyl)-3-fluoroallyloxy)-N-tert-butylbenzamide], at human diamine oxidase, the “inhibitory activity against human diamine oxidase” value is recorded as “low inhibitory activity”. For `CN(C)C(=N)N=C(N)N` [metformin], in the test with HbA1c, the “average improvement in the HbA1c value” is reported as 1.0-1.5%. For the compound `OC[C@H]1O[C@@H](c2ccc(Cl)c(Cc3ccc(O[C@H]4CCOC4)cc3)c2)[C@H](O)[C@@H](O)[C@@H]1O` [empagliflozin], the “selectivity SGLT2 versus SGLT1” value in the test with SGLT2 versus SGLT1 is recorded as “high selectivity”. For the same compound, in test [1], the “rates of the primary composite cardiovascular outcome and of death from any cause” value is “significantly lower rates”.
